Source: patent US20230143612A1 (Arbutus Biopharma Corporation, priority 2020, published 2023)

The molecules below were run against PD-L1 His protein / PD-1 Fc protein (Homo sapiens, UniProt Q9NZQ7) (assay: HTRF Assay (PD-1/PD-L1 interaction)). Conditions: PD-L1 His 6 nM, PD-1 Fc 6 nM.
Format: binding
Method in brief: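 HTRF: PD-L1 His (6 nM final), compound (3-fold dilutions, 20 μM to 0.001 μM final) and PD-1 Fc (6 nM final) preincubated 15 min at room temperature. Anti-human IgG-XL665 and anti-6HIS Tb cryptate (mixed at 6.7 nM and 0.35 nM) then added for 1 h at room temperature before reading.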

Sequence of PD-L1 His protein / PD-1 Fc protein (Q9NZQ7 19-238 limits assumed): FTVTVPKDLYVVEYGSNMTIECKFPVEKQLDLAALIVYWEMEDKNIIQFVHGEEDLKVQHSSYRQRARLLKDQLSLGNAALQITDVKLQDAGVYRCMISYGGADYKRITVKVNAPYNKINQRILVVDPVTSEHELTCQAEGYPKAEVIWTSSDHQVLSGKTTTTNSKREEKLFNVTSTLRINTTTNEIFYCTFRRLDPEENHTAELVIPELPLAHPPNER

**Q.** With `COc1cc(-c2cccc(-c3cccc(-c4ccn5c(=O)c(CNC[C@@H]6CCC(=O)N6)cnc5c4)c3Cl)c2Cl)c(F)cc1CNC[C@@H]1CCC(=O)N1` [Example 106, 8-(2,2′-Dichloro-2″-fluoro-5″-methoxy-4″-(((((S)-5-oxopyrrolidin-2-yl)methyl)amino)methyl)-[1,1′:3′,1″-terphenyl]-3-yl)-3-(((((S)-5-oxopyrrolidin-2-yl)methyl)amino)methyl)-4H-pyrido[1,2-a]pyrimidin-4-one] as the molecule, how does the IC50 read?
**A.** 4.9 nM

**Q.** `Cc1c(NC(=O)c2ccc(CNCCO)cn2)cccc1-c1cccc(-c2ccn3c(=O)c(CNCCO)cnc3c2)c1` [Example 2, 5-(((2-Hydroxyethyl)amino)methyl)-N-(3′-(3-(((2-hydroxyethyl)amino)methyl)-4-oxo-4H-pyrido[1,2-a]pyrimidin-8-yl)-2-methyl-[1,1′-biphenyl]-3-yl)picolinamide] was tested. Which IC50 did it give?
**A.** 79 nM

**Q.** With `COc1nc(-c2cccc(-c3cccc(-c4cc5c(=O)n(C)c(CN(C)C[C@H](C)O)nn5c4)c3Cl)c2Cl)ccc1CNC[C@@H]1CCC(=O)N1` [Example 436, 6-(2,2′-dichloro-3′-(6-methoxy-5-(((((S)-5-oxopyrrolidin-2-yl)methyl)amino)methyl)pyridin-2-yl)-[1,1′-biphenyl]-3-yl)-2-((((S)-2-hydroxypropyl)(methyl)amino)methyl)-3-methylpyrrolo[2,1-f][1,2,4]triazin-4(3H)-one] as the molecule, how does the IC50 read?
**A.** 26 nM

**Q.** For `COc1nc(-c2cccc(-c3cccc(-c4ccn5c(=O)c(C)c(CNCCO)nc5c4)c3Cl)c2Cl)ccc1CNC[C@@H]1CCC(=O)N1` [Example 371, (S)-8-(2,2′-Dichloro-3′-(6-methoxy-5-((((5-oxopyrrolidin-2-yl)methyl)amino)methyl)pyridin-2-yl)-[1,1′-biphenyl]-3-yl)-2-(((2-hydroxyethyl)amino)methyl)-3-methyl-4H-pyrido[1,2-a]pyrimidin-4-one], which IC50 is on record?
**A.** 33 nM

**Q.** For `Cc1c(COc2cc(OCc3cncc(C#N)c3)c(CNCCO)cc2Cl)cccc1-c1cccc(-c2ccn3c(=O)c(CNCCO)cnc3c2)c1C` [Example 3, 5-((4-Chloro-2-(((2-hydroxyethyl)amino)methyl)-5-((3′-(3-(((2-hydroxyethyl)amino)methyl)-4-oxo-4H-pyrido[1,2-a]pyrimidin-8-yl)-2,2′-dimethyl-[1,1′-biphenyl]-3-yl)methoxy)phenoxy)methyl)nicotinonitrile], which IC50 is on record?
**A.** 1.2 nM

**Q.** Which IC50 does the source give for `COC(=O)C1CN(Cc2cnc3cc(-c4cccc(-c5cccc(-c6ccc(CN7CC(C(=O)OC)C7)c(OC)n6)c5Cl)c4Cl)ncc3c2)C1` [Example 289, Methyl 1-((6-(2,2′-dichloro-3′-(3-((3-(methoxycarbonyl)azetidin-1-yl)methyl)-1,6-naphthyridin-7-yl)-[1,1′-biphenyl]-3-yl)-2-methoxypyridin-3-yl)methyl)azetidine-3-carboxylate] here?
**A.** 9 nM

**Q.** How did the IC50 turn out when `COc1nc(-c2cccc(-c3cccc(-c4cc5c(cn4)c(CNC[C@@H]4CCC(=O)N4)cn5C)c3Cl)c2Cl)ccc1CNC[C@@H]1CCC(=O)N1` [Example 402, (S)-5-((((6-(2,2′-Dichloro-3′-(1-methyl-3-(((((S)-5-oxopyrrolidin-2-yl)methyl)amino)methyl)-1H-pyrrolo[3,2-c]pyridin-6-yl)-[1,1′-biphenyl]-3-yl)-2-methoxypyridin-3-yl)methyl)amino)methyl)pyrrolidin-2-one] was run?
**A.** 50 nM

**Q.** `COc1nc(-c2cccc(-c3cccc(-c4ccn5ncc(CNC[C@@H]6CCC(=O)N6)c5n4)c3Cl)c2Cl)ccc1CNC[C@@H]1CCC(=O)N1` [Example 282, (S)-5-((((6-(2,2′-Dichloro-3′-(3-(((((S)-5-oxopyrrolidin-2-yl)-methyl)amino)-methyl)-pyrazolo[1,5-a]pyrimidin-5-yl)-[1,1′-biphenyl]-3-yl)-2-methoxypyridin-3-yl)methyl)-amino)methyl)-pyrrolidin-2-one] was tested. Which IC50 did it give?
**A.** 8.7 nM

**Q.** `COc1nc(-c2cccc(-c3cccc(-c4ccn5c(=O)c(CNCC6(O)COC6)cnc5c4)c3Cl)c2Cl)ccc1CNC[C@@H]1CCC(=O)N1` [Example 243, (S)-8-(2,2′-dichloro-3′-(6-methoxy-5-((((5-oxopyrrolidin-2-yl)-methyl)-amino)-methyl)pyridin-2-yl)-[1,1′-biphenyl]-3-yl)-3-((((3-hydroxyoxetan-3-yl)methyl)-amino)-methyl)-4H-pyrido[1,2-a]-pyrimidin-4-one] was tested. Which IC50 did it give?
**A.** 0.3 nM

**Q.** Which IC50 does the source give for `COc1nc(-c2cccc(-c3cccc(-c4cc5c(=O)n(C)c(CNC6CC7(COC7)C6)nn5c4)c3Cl)c2Cl)ccc1CNC[C@@H]1CCC(=O)N1` [Example 446, 6-[2-Chloro-3-[2-chloro-3-[6-methoxy-5-[[[(2S)-5-oxopyrrolidin-2-yl]methylamino]methyl]-2-pyridyl]phenyl]phenyl]-3-methyl-2-[(2-oxaspiro[3.3]heptan-6-ylamino)methyl] pyrrolo[2,1-f][1,2,4]triazin-4-one] here?
**A.** 160 nM

**Q.** With `Cc1c(COc2cc(OCc3cncc(C#N)c3)c(CNC[C@@H]3CCC(=O)N3)cc2Cl)cccc1-c1cccc(-c2ccc3c(c2)C(=O)N(C)CC(=O)N3CCNC[C@@H]2CCC(=O)N2)c1C` [Example 20, 5-((4-Chloro-5-((2,2′-dimethyl-3′-(4-methyl-2,5-dioxo-1-(2-((((S)-5-oxopyrrolidin-2-yl)methyl)amino)ethyl)-2,3,4,5-tetrahydro-1H-benzo[e][1,4]diazepin-7-yl)-[1,1′-biphenyl]-3-yl)methoxy)-2-(((((S)-5-oxopyrrolidin-2-yl)methyl)amino)methyl)phenoxy)methyl)nicotinonitrile] as the molecule, how does the IC50 read?
**A.** 4.2 nM

**Q.** How did the IC50 turn out when `COc1nc(-c2cccc(-c3cccc(-c4cnc5c(CNC[C@@H]6CCC(=O)N6)c(OC)nn5c4)c3Cl)c2Cl)ccc1CNC[C@@H]1CCC(=O)N1` [Example 379, (S)-5-((((6-(2,2′-Dichloro-3′-(2-methoxy-3-(((((S)-5-oxopyrrolidin-2-yl)methyl)amino)methyl)pyrazolo[1,5-a]pyrimidin-6-yl)-[1,1′-biphenyl]-3-yl)-2-methoxypyridin-3-yl)methyl)amino)methyl)pyrrolidin-2-one] was run?
**A.** 5.6 nM

**Q.** Which IC50 does the source give for `COc1nc(-c2cccc(-c3cccc(-c4cc5c(=O)n(C)c(CN6CC7(C6)CN(C(C)=O)C7)nn5c4)c3Cl)c2Cl)ccc1CNC[C@@H]1CCC(=O)N1` [Example 460, 2-[(2-Acetyl-2,6-diazaspiro[3.3]heptan-6-yl)methyl]-6-[2-chloro-3-[2-chloro-3-[6-methoxy-5-[[[(2S)-5-oxopyrrolidin-2-yl]methylamino]methyl]-2-pyridyl]phenyl]phenyl]-3-methyl-pyrrolo[2,1-f][1,2,4]triazin-4-one] here?
**A.** 9.9 nM

**Q.** `COc1cc(-c2cccc(-c3cccc(-c4ccc(CNC[C@@H]5CCC(=O)N5)c(OC)n4)c3Cl)c2Cl)cc2c1CN(CCC(C)(C)O)CC2` [Example 485, (S)-5-((((6-(2,2′-Dichloro-3′-(2-(3-hydroxy-3-methylbutyl)-8-methoxy-1,2,3,4-tetrahydroisoquinolin-6-yl)-[1,1′-biphenyl]-3-yl)-2-methoxypyridin-3-yl)methyl)amino)methyl)pyrrolidin-2-one] was tested. Which IC50 did it give?
**A.** 0.1 nM

**Q.** With `COc1nc(-c2cccc(-c3cccc(-c4cnc5c(N)c(CO)sc5c4)c3Cl)c2Cl)ccc1CNC[C@@H]1CCC(=O)N1` [Example 217, (S)-5-((((6-(3′-(3-Amino-2-(hydroxymethyl)-thieno[3,2-b]-pyridin-6-yl)-2,2′-dichloro-[1,1′-biphenyl]-3-yl)-2-methoxypyridin-3-yl)methyl)amino)methyl)pyrrolidin-2-one] as the molecule, how does the IC50 read?
**A.** 3.5 nM

**Q.** For `COc1nc(-c2cccc(-c3cccc(-c4ccc5c(n4)CCCC5NC[C@H](C)O)c3Cl)c2Cl)ccc1CNC[C@@H]1CCC(=O)N1` (mixture of isomers) [Example 390, (5S)-5-((((6-(2,2′-Dichloro-3′-(5-(((S)-2-hydroxypropyl)amino)-5,6,7,8-tetrahydroquinolin-2-yl)-[1,1′-biphenyl]-3-yl)-2-methoxypyridin-3-yl)methyl)amino)methyl)pyrrolidin-2-one], which IC50 is on record?
**A.** 6.5 nM

**Q.** How did the IC50 turn out when `COc1nc(-c2cccc(-c3cccc(-c4ccc5c(c4F)CN(C[C@@H]4CCC(=O)N4)CC5)c3Cl)c2Cl)ccc1CNC[C@@H]1CCC(=O)N1` [Example 428, (S)-5-((7-(2,2′-Dichloro-3′-(6-methoxy-5-(((((S)-5-oxopyrrolidin-2-yl)methyl)-amino)methyl)-pyridin-2-yl)-[1,1′-biphenyl]-3-yl)-8-fluoro-3,4-dihydroisoquinolin-2(1H)-yl)methyl)-pyrrolidin-2-one] was run?
**A.** 140 nM

**Q.** `COc1nc(-c2cccc(-c3cccc(-c4ccc5c(n4)CCN(C[C@@H]4CCC(=O)N4)C5)c3Cl)c2Cl)ccc1CNC[C@@H]1CCC(=O)N1` [Example 426, (S)-5-((((6-(2,2′-Dichloro-3′-(6-(((S)-5-oxopyrrolidin-2-yl)-methyl)-5,6,7,8-tetrahydro-1,6-naphthyridin-2-yl)-[1,1′-biphenyl]-3-yl)-2-methoxypyridin-3-yl)-methyl)-amino)-methyl)pyrrolidin-2-one] was tested. Which IC50 did it give?
**A.** 0.1 nM

**Q.** How did the IC50 turn out when `COC(=O)CCCNCc1cnc2cc(-c3cccc(-c4cccc(-c5ccc(CNC[C@@H]6CCC(=O)N6)c(OC)n5)c4Cl)c3Cl)ccn2c1=O` [Example 137, Methyl (S)-4-(((8-(2,2′-dichloro-3′-(6-methoxy-5-((((5-oxopyrrolidin-2-yl)methyl)amino)methyl)pyridin-2-yl)-[1,1′-biphenyl]-3-yl)-4-oxo-4H-pyrido[1,2-a]pyrimidin-3-yl)methyl)amino)butanoate] was run?
**A.** 1.7 nM

**Q.** How did the IC50 turn out when `COc1nc(-c2cccc(-c3cccc(-c4ccn5c(=O)c(C6=NCC(C(=O)O)N6)cnc5c4)c3Cl)c2Cl)ccc1CNC[C@@H]1CCC(=O)N1` (mixture of isomers) [Example 179, 2-(8-(2,2′-Dichloro-3′-(6-methoxy-5-(((((S)-5-oxopyrrolidin-2-yl)methyl)amino)methyl)pyridin-2-yl)-[1,1′-biphenyl]-3-yl)-4-oxo-4H-pyrido[1,2-a]pyrimidin-3-yl)-4,5-dihydro-1H-imidazole-5-carboxylic acid] was run?
**A.** 0.1 nM
